Experimental data reported in patent publication US9695178B2, “6-(2-pyridyl)-7,8-dihydro-5H-pyrido[4,3-D]pyrimidine analogs as hedgehog pathway signaling inhibitors and therapeutic applications thereof” (Suzhou Yunxuan Yiyao Keji Youxian Gongsi, priority 2013, dated 2017).

Molecular target: Smo (Homo sapiens, UniProt Q99835)
Experiment: Bodipy-Cyclopamine Binding Assay (confirmation assay), Hek293-SMO cells
Description: The confirmation assay is based on Bodipy-Cyclopamine Binding Assay:
Bodipy-Cyclopamine binding assay is a fluorescence based assay used to analysis the binding of Smo agonists. […] Bodipy-Cyclopamine was purchased from Toronto Research Chemicals and dissolved in methanol.
Hek293-SMO cells were plated in 96-well-plate (3340, Corning), the final cell concentration is 15,000 cells/well in 100 ul 1% serum-containing DMEM. The plates were incubated in 37 degree for additional 48 hours.
Hek293-SMO plate were washed with PBS and fixed with 4% paraformaldehyde (PFA)/PBS for 20 min at room temperature. After removing the PFA buffer, the cells were incubated with DAPI/PBS (5 ug/mL) for 10 min and followed by twice wash with PBS. After wash, cells were incubated for 2 h at room temperature in binding buffer (HBSS W/O Ca^2+ and Mg^2+) containing 100 nM bodipy-cyclopamine and compounds over a range of concentrations from 0-10 μM for competitive binding. After incubation, the cells were washed twice with the PBS. The fluorescence images were automatically captured and analyzed by a high content fluorescence imaging system (Arrayscan VTI, Thermo). GDC-0449 was used as reference compound to normalize the data. IC50 values were calculated with GraphPad Prism software using the sigmoidal dose-response function. The Ki was calculated following the Cheng-Prusoff equation, as Ki=IC50/[1+[bodipy-cyclopamine]/Kd)].

Chain of Smo (Q99835 28-787): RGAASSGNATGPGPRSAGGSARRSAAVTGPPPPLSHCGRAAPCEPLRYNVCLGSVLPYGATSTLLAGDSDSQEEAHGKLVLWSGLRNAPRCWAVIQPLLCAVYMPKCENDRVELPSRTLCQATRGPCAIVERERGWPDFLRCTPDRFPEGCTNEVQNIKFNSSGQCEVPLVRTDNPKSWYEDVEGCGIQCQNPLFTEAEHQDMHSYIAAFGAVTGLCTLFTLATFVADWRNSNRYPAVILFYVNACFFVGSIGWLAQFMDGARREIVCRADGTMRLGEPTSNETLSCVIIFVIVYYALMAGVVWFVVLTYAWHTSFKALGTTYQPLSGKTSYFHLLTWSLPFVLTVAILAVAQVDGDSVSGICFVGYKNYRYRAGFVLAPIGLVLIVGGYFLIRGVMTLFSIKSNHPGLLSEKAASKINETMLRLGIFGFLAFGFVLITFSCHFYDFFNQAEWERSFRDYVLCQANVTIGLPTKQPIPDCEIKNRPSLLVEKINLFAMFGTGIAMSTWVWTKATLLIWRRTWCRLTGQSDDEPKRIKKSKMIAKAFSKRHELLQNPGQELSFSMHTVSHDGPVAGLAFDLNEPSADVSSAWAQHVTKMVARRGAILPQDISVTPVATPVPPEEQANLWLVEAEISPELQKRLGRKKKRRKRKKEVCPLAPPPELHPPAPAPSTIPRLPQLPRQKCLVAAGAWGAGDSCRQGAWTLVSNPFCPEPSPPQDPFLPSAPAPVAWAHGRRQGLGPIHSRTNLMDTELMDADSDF

Question: How did the IC50 turn out when `COC1CCN(c2ncc3c(n2)CCN(c2cc(-c4ncc(C)cc4C)c(Cl)cn2)C3)CC1` [Compound A-68, 6-(5′-chloro-3,5-dimethyl-2,4′-bipyridin-2′-yl)-2-(4-methoxy-piperidin-1-yl)-5,6,7,8-tetrahydro-pyrido-[4,3-d]pyrim-idine] was run?
Answer: The IC50 was 163 nM.

Question: Which IC50 does the source give for `Cc1cnc(-c2cc(N3CCc4nc(OC(C)C)ncc4C3)ncc2Cl)c(C)c1` [Compound A-69, 6-(5′-chloro-3,5-dimethyl-2,4′-bipyridin-2′-yl)-2-isopropoxy-5,6,7,8-tetrahydro-pyrido-[4,3-d]pyrim-idine] here?
Answer: Its IC50 is 97.8 nM.

Question: Which IC50 does the source give for `Cc1cnc(-c2cc(N3CCc4nc(NC5CCCC5)ncc4C3)ncc2Cl)c(C)c1` [Compound A-70, 6-(5′-chloro-3,5-dimethyl-2,4′-bipyridin-2′-yl)-N-cyclopentyl-5,6,7,8-tetrahydro-pyrido-[4,3-d]pyrim-idin-2-amine] here?
Answer: Its IC50 is 117 nM.

Question: With `Cc1cnc(-c2cc(N3CCc4nc(OC5CCCC5)ncc4C3)ncc2Cl)c(C)c1` [Compound A-71, 6-(5′-chloro-3,5-dimethyl-2,4′-bipyridin-2′-yl)-2-(cyclo-pentyloxy)-5,6,7,8-tetrahydro-pyrido-[4,3-d]pyrim-idine] as the compound, how does the IC50 read?
Answer: Its IC50 is 77.1 nM.

Question: With `Cc1cnc(-c2cc(N3CCc4nc(N5CC(O)C5)ncc4C3)ncc2Cl)c(C)c1` [Compound A-72, 1-(6-(5′-chloro-3,5-dimethyl-2,4′-bipyridin-2′-yl)-5,6,7,8-tetrahydro-pyrido-[4,3-d]pyrimidin-2-yl)azetidin-3-ol] as the compound, how does the IC50 read?
Answer: Its IC50 is 283 nM.

Question: How did the IC50 turn out when `Cc1cnc(-c2cc(N3CCc4nc(OCC5CC5)ncc4C3)ncc2Cl)c(C)c1` [Compound A-73, 6-(5′-chloro-3,5-dimethyl-2,4′-bipyridin-2′-yl)-2-(cyclopropyl-methoxy)-5,6,7,8-tetrahydro-pyrido-[4,3-d]pyrim-idine] was run?
Answer: Its IC50 is 84 nM.

Question: `CSc1ncc2c(n1)C(C)CN(c1cc(-c3ncc(C)cc3C)c(Cl)cn1)C2` (stereo not drawn) [Compound A-74, 6-(5′-chloro-3,5-dimethyl-2,4′-bipyridin-2′-yl)-8-methyl-2-(methylthio)-5,6,7,8-tetrahydro-pyrido-[4,3-d]-pyrimidine] was tested. Which IC50 did it give?
Answer: The IC50 was 575 nM.

Question: For `Cc1cnc(-c2cc(N3Cc4cnc(NC5CC5)nc4C(C)C3)ncc2Cl)c(C)c1` (stereo not drawn) [Compound A-75, 6-(5′-chloro-3,5-dimethyl-2,4′-bipyridin-2′-yl)-N-cyclopropyl-8-methyl-5,6,7,8-tetrahydro-pyrido-[4,3-d]pyrimidin-2-amine], which IC50 is on record?
Answer: Its IC50 is 257 nM.

Question: Which IC50 does the source give for `Cc1cnc(-c2cc(N3Cc4cnc(N5CC(C)NC(C)C5)nc4C(C)C3)ncc2Cl)c(C)c1` (stereo not drawn) [Compound A-76, 6-(5′-chloro-3,5-dimethyl-2,4′-bipyridin-2′-yl)-2-(3,5-dimethyl-piperazin-1-yl)-8-methyl-5,6,7,8-tetrahydro-pyrido-[4,3-d]pyrimidine] here?
Answer: The IC50 was 147 nM.

Question: How did the IC50 turn out when `Cc1cnc(-c2cc(N3Cc4cnc(N5CCCC5)nc4C(C)C3)ncc2Cl)c(C)c1` (stereo not drawn) [Compound A-77, 6-(5′-chloro-3,5-dimethyl-2,4′-bipyridin-2′-yl)-8-methyl-2-(pyrrolidin-1-yl)-5,6,7,8-tetrahydropyrido[4,3-d]pyrimidine] was run?
Answer: The IC50 was 92.9 nM.

Question: `Cc1cnc(-c2cc(N3CC(C)c4nc(N5CCC(O)CC5)ncc4C3=O)ncc2Cl)c(C)c1` (stereo not drawn) [Compound A-78, 6-(5′-chloro-3,5-dimethyl-2,4′-bipyridin-2′-yl)-2-(4-hydroxy-piperidin-1-yl)-8-methyl-7,8-dihydro-pyrido[4,3-d]pyrimidin-5(6H)-one] was tested. Which IC50 did it give?
Answer: The IC50 was 125 nM.

Question: With `CSc1ncc2c(n1)C(C)(C)CN(c1cc(-c3ncc(C)cc3C)c(Cl)cn1)C2` [Compound A-79, 6-(5′-chloro-3,5-dimethyl-2,4′-bipyridin-2′-yl)-8,8-dimethyl-2-(methylthio)-5,6,7,8-tetrahydro-pyrido-[4,3-d]pyrim-idine] as the compound, how does the IC50 read?
Answer: The IC50 was 188 nM.

Question: For `Cc1cnc(-c2cc(N3Cc4cnc(NC5CC5)nc4C(C)(C)C3)ncc2Cl)c(C)c1` [Compound A-80, 6-(5′-chloro-3,5-dimethyl-2,4′-bipyridin-2′-yl)-N-cyclopropyl-8,8-dimethyl-5,6,7,8-tetrahydro-pyrido-[4,3-d]pyrimidin-2-amine], which IC50 is on record?
Answer: The IC50 was 28.1 nM.

Question: How did the IC50 turn out when `Cc1cnc(-c2cc(N3Cc4cnc(N5CCCC5)nc4C(C)(C)C3)ncc2Cl)c(C)c1` [Compound A-81, 6-(5′-chloro-3,5-dimethyl-2,4′-bipyridin-2′-yl)-8,8-dimethyl-2-(pyrrolidin-1-yl)-5,6,7,8-tetrahydro-pyrido-[4,3-d]pyrimidine] was run?
Answer: The IC50 was 167 nM.

Question: Which IC50 does the source give for `Cc1cnc(-c2cc(N3Cc4cnc(N5CC(C)NC(C)C5)nc4C(C)(C)C3)ncc2Cl)c(C)c1` (stereo not drawn) [Compound A-82, 6-(5′-chloro-3,5-dimethyl-2,4′-bipyridin-2′-yl)-2-(3,5-dimethyl-piperazin-1-yl)-8,8-dimethyl-5,6,7,8-tetrahydro-pyrido-[4,3-d]pyrimidine] here?
Answer: The IC50 was 105 nM.

Question: `Cc1cnc(-c2cc(N3CC(C)(C)c4nc(N5CCC(O)CC5)ncc4C3=O)ncc2Cl)c(C)c1` [Compound A-83, 6-(5′-chloro-3,5-dimethyl-2,4′-bipyridin-2′-yl)-2-(4-hydroxy-piperidin-1-yl)-8,8-dimethyl-7,8-dihydro-pyrido[4,3-d] pyrimidin-5(6H)-one] was tested. Which IC50 did it give?
Answer: The IC50 was 211 nM.

Question: Which IC50 does the source give for `Cc1cnc(-c2cc(N3CCc4nc(N)ncc4C3)ncc2Cl)c(C)c1` [Compound A-89, 6-(5′-chloro-3,5-dimethyl-2,4′-bipyridin-2′-yl)-5,6,7,8-tetrahydropyrido-[4,3-d]pyrimidin-2-amine] here?
Answer: The IC50 was greater than 1000 nM.

Question: Which IC50 does the source give for `CCOC(=O)Nc1ncc2c(n1)CCN(c1cc(-c3ncc(C)cc3C)c(Cl)cn1)C2` [Compound A-90, ethyl 6-(5′-chloro-3,5-dimethyl-2,4′-bipyridin-2′-yl)-5,6,7,8-tetrahydropyrido[4,3-d]pyrimidin-2-ylcarbamate] here?
Answer: Its IC50 is 408 nM.

Question: With `CCNC(=O)Nc1ncc2c(n1)CCN(c1cc(-c3ncc(C)cc3C)c(Cl)cn1)C2` [Compound A-91, 1-(6-(5′-chloro-3,5-dimethyl-2,4′-bipyridin-2′-yl)-5,6,7,8-tetrahydropyrido-[4,3-d]pyrimidin-2-yl)-3-ethylurea] as the compound, how does the IC50 read?
Answer: The IC50 was greater than 1000 nM.

Question: For `Cc1cnc(-c2cc(N3CCc4nc(NC(=O)NC(C)C)ncc4C3)ncc2Cl)c(C)c1` [Compound A-92, 1-(6-(5′-chloro-3,5-dimethyl-2,4′-bipyridin-2′-yl)-5,6,7,8-tetrahydropyrido-[4,3-d]pyrimidin-2-yl)-3-isopropylurea], which IC50 is on record?
Answer: The IC50 was 961 nM.

Question: Which IC50 does the source give for `Cc1cnc(-c2cc(N3CCc4nc(NC(=O)C(C)(C)C)ncc4C3)ncc2Cl)c(C)c1` [Compound A-93, N-(6-(5′-chloro-3,5-dimethyl-2,4′-bipyridin-2′-yl)-5,6,7,8-tetrahydropyrido-[4,3-d]pyrimidin-2-yl)pivalamide] here?
Answer: Its IC50 is 104 nM.

Question: With `CSc1ncc2c(n1)CCN(c1cc(-c3ncc(C)cc3C)c(Cl)cn1)C2=O` [Compound A-96, 6-(5′-chloro-3,5-dimethyl-2,4′-bipyridin-2′-yl)-2-(methylthio)-7,8-dihydro-pyrido[4,3-d]pyrimidin-5(6H)-one] as the compound, how does the IC50 read?
Answer: Its IC50 is 169 nM.

Question: With `Cc1cnc(-c2cc(N3CCc4nc(N5CCC(O)CC5)ncc4C3=O)ncc2Cl)c(C)c1` [Compound A-97, 6-(5′-chloro-3,5-dimethyl-2,4′-bipyridin-2′-yl)-2-(4-hydroxypiperidin-1-yl)-7,8-dihydro-pyrido[4,3-d]pyrimidin-5(6H)-one] as the compound, how does the IC50 read?
Answer: Its IC50 is 84.1 nM.

Question: With `Cc1cnc(-c2cc(N3CCc4nc(S(C)(=O)=O)ncc4C3=O)ncc2Cl)c(C)c1` [Compound A-98, 6-(5′-chloro-3,5-dimethyl-2,4′-bipyridin-2′-yl)-2-(methyl-sulfonyl)-7,8-dihydro-pyrido[4,3-d]pyrimidin-5(6H)-one] as the compound, how does the IC50 read?
Answer: Its IC50 is 835 nM.

Question: `Cc1cnc(-c2cc(N3CCc4nc(N5CC(C)NC(C)C5)ncc4C3=O)ncc2Cl)c(C)c1` (stereo not drawn) [Compound A-101, 6-(5′-chloro-3,5-dimethyl-2,4′-bipyridin-2′-yl)-2-(3,5-dimethyl-piperazin-1-yl)-7,8-dihydro-pyrido[4,3-d]pyrimidin-5(6H)-one] was tested. Which IC50 did it give?
Answer: The IC50 was 253 nM.

Question: `Cc1cnc(-c2cc(N3CCc4nc(NCC5CC5)ncc4C3=O)ncc2Cl)c(C)c1` [Compound A-104, 6-(5′-chloro-3,5-dimethyl-2,4′-bipyridin-2′-yl)-2-(cyclopro-pylmeth-ylamino)-7,8-dihydro-pyrido[4,3-d]pyrimidin-5(6H)-one] was tested. Which IC50 did it give?
Answer: Its IC50 is 76 nM.

Question: `Cc1cnc(-c2cc(N3CCc4nc(N5CCC(O)C5)ncc4C3=O)ncc2Cl)c(C)c1` (stereo not drawn) [Compound A-105, 6-(5′-chloro-3,5-dimethyl-2,4′-bipyridin-2′-yl)-2-(3-hydroxy-pyrrolidin-1-yl)-7,8-dihydro-pyrido[4,3-d]pyrimidin-5(6H)-one] was tested. Which IC50 did it give?
Answer: The IC50 was 272 nM.

Question: With `Cc1ccc(-c2cc(N3CCc4nc(NC5CC5)ncc4C3)ncc2Cl)nc1` [Compound A-110, 6-(5′-chloro-5-methyl-2,4′-bipyridin-2′-yl)-N-cyclopropyl-5,6,7,8-tetrahydropyrido-[4,3-d]pyrimidin-2-amine] as the compound, how does the IC50 read?
Answer: The IC50 was greater than 1000 nM.

Question: With `Cc1cccnc1-c1cc(N2CCc3nc(NC4CC4)ncc3C2)ncc1Cl` [Compound A-111, 6-(5′-chloro-3-methyl-2,4′-bipyridin-2′-yl)-N-cyclopropyl-5,6,7,8-tetrahydropyrido[4,3-d]pyrimidin-2-amine] as the compound, how does the IC50 read?
Answer: The IC50 was 82.9 nM.

Question: `Clc1cnc(N2CCc3nc(NC4CC4)ncc3C2)cc1-c1ccc2ccccc2n1` [Compound A-112, 6-(5-chloro-4-(quinolin-2-yl)pyridin-2-yl)-N-cyclopropyl-5,6,7,8-tetrahydropyrido-[4,3-d]pyrimidin-2-amine] was tested. Which IC50 did it give?
Answer: The IC50 was 113 nM.

Question: Which IC50 does the source give for `Clc1cnc(N2CCc3nc(NC4CC4)ncc3C2)cc1-c1ccccn1` [Compound A-113, 6-(5′-chloro-2,4′-bipyridin-2′-yl)-N-cyclopropyl-5,6,7,8-tetrahydropyrido-[4,3-d]pyrimidin-2-amine] here?
Answer: The IC50 was 470 nM.

Question: Which IC50 does the source give for `FC(F)(F)c1ccc(-c2cc(N3CCc4nc(NC5CC5)ncc4C3)ncc2Cl)nc1` [Compound A-114, 6-(5′-chloro-5-(trifluoro-methyl)-2,4′-bipyridin-2′-yl)-N-cyclopropyl-5,6,7,8-tetrahydro-pyrido-[4,3-d]pyrimidin-2-amine] here?
Answer: Its IC50 is greater than 1000 nM.

Question: For `Clc1cnc(N2CCc3nc(NC4CC4)ncc3C2)cc1-c1ncccn1` [Compound A-115, 6-(5-chloro-4-(pyrimidin-2-yl)pyridin-2-yl)-N-cyclopropyl-5,6,7,8-tetrahydropyrido[4,3-d]pyrimidin-2-amine], which IC50 is on record?
Answer: Its IC50 is greater than 1000 nM.
